# Columns and labels:
# D1 receptor [1] = biological target: T1, D1 receptor (Rattus norvegicus, UniProt P18901); experiment: SCH-23390 pretreatment before cocaine, CBV-weighted fMRI in rat; assay type: in vivo; conditions: post 0.5 mg/kg cocaine
# T1 construct: Male Harlan Sprague-Dawley rats (225-300 gm) were anesthetized briefly; from tissue; host or cells: brain of living male Sprague-Dawley rats (in vivo)
# D1 receptor [2] = biological target: T1, D1 receptor; experiment: SCH-23390 pretreatment before cocaine, LDF of frontal cortex CBF in rat; assay type: in vivo; conditions: 0.5 mg/kg cocaine after SCH-23390 pretreatment, n=3, p<0.04
# Procedure: All procedures were carried out in accordance with NIH guidelines. Male Harlan Sprague-Dawley rats (225-300 gm) were anesthetized briefly with 1.5% halothane in oxygen for insertion of left femoral arterial and venous cannulae and placement of tracheostomy for mechanical ventilation (using a 16 gauge intravenous catheter, Inste-W, Becton Dickinson, Sandy, Utah). All wounds were infiltrated with 1% lidocaine before incision. Following surgery, the inspired halothane concentration was reduced to 0.7% and rats were paralyzed with 2 mg/kg intravenous pancuronium, followed by a continuous intravenous infusion of pancuronium at 2 mg/kg/hr. Pancuronium was dissolved in normal saline administered at 5 ml/kg/hr. […] Arterial blood samples (150 μl) withdrawn from cannula were analyzed for arterial partial pressures of oxygen, carbon dioxide, and pH (Ciba-Coming Model 1304) before administration of drugs, and at the end of each experiment before sacrifice, to ensure animal stability. Arterial blood pressure and rectal temperature were monitored throughout the experiment. […]
# (§1) Regional cortical blood flow was determined by LDF (Perimed, PF2B, Stockholm, Sweden) as described previously (Ayata, et al., 1996, J. Cereb. Blood Flow Metab., 16:539-541). […] All data were collected, stored, and analyzed using MacLab/8 data acquisition and analysis system (ADInstruments, Mountain View, Calif.). […]
# rat frontal cortex = experiment: Laser Doppler-flowmetry (LDF) of regional cortical blood flow (CBF) in rat; assay type: in vivo; conditions: rat, bolus infusion 1, 5, 10 and 20 mg/kg (data not shown)
# Procedure: (§2) All procedures were carried out in accordance with NIH guidelines. Male Harlan Sprague-Dawley rats (225-300 gm) were anesthetized briefly with 1.5% halothane in oxygen for insertion of left femoral arterial and venous cannulae and placement of tracheostomy for mechanical ventilation (using a 16 gauge intravenous catheter, Inste-W, Becton Dickinson, Sandy, Utah). All wounds were infiltrated with 1% lidocaine before incision. Following surgery, the inspired halothane concentration was reduced to 0.7% and rats were paralyzed with 2 mg/kg intravenous pancuronium, followed by a continuous intravenous infusion of pancuronium at 2 mg/kg/hr. Pancuronium was dissolved in normal saline administered at 5 ml/kg/hr. Rats were mechanically ventilated (in a small animal volume controlled ventilator, Harvard Apparatus, Inc., South Natick, Mass.) with a 80/20 air/oxygen mixture, an inspiratory to expiratory ratio of 1:1, and an initial tidal volume of 3.0 ml at a rate of 40 breaths per minute. Ventilation parameters were adjusted to maintain normal arterial blood gases (pH=7.40±0.01, PaCO2=40±2, PaO2=145±10). Arterial blood samples (150 μl) withdrawn from cannula were analyzed for arterial partial pressures of oxygen, carbon dioxide, and pH (Ciba-Coming Model 1304) before administration of drugs, and at the end of each experiment before sacrifice, to ensure animal stability. Arterial blood pressure and rectal temperature were monitored throughout the experiment. […] Rats torsos were wrapped in two heating blankets (Gaymar, Orchid Park, N.Y.) circulating warm water to maintain core temperature at 37-38° C. To minimize MRI motion artifact, rats were placed into a custom plastic cradle attached to a head frame machined from delrin plastic (David Kopf Instruments, Fremont, Calif.); heads were fixed with plastic screws inserted into the ear canals and a bar inserted under the front incisors. Rat heads were shaved and covered with gel toothpaste to reduce magnetic susceptibility artifacts arising from air-tissue interfaces; ear canals and oropharynx were also filled with toothpaste. A surface coil was secured over the dorsal surface of the head before positioning the animal in the magnet center. Cocaine (RBI, Natick, Mass.), SCH-23390 (RBI, Natick, Mass.), and cocaine methiodide (NIDA, Bethesda, Md.) were dissolved in normal saline and administered in a 0.5 ml volume at a rate of 1 ml/min via the femoral vein. Sixty minutes passed before injections of cocaine were repeated.
# Regional cortical blood flow was determined by LDF (Perimed, PF2B, Stockholm, Sweden) as described previously (Ayata, et al., 1996, J. Cereb. Blood Flow Metab., 16:539-541). Rats (n=8) were prepared exactly as for dynamic MR studies and positioned in a standard stereotaxic head frame. With the scalp incised and retracted, two holes (1-2 mm in diameter) were drilled through the skull 2 mm lateral to midline; one hole was 2 mm anterior to bregma overlying frontal cortex, and the other was 8 mm posterior to bregma to examine occipital cortex. The flow probe was positioned directly upon exposed dura mater in a puddle of mineral oil. […] All data were collected, stored, and analyzed using MacLab/8 data acquisition and analysis system (ADInstruments, Mountain View, Calif.). Arterial pressure was continuously monitored and the data stored; heart rate was calculated from arterial pressure pulses by the data acquisition software. […]
# [3] = system: Male Harlan Sprague-Dawley rats; experiment: Arterial blood pressure and heart rate monitoring in rat; conditions: bolus infusion 1, 5, 10 and 20 mg/kg
# Procedure: as §2, with “To minimize MRI motion artifact, rats were placed into a custom plastic cradle attached to a head frame machined from delrin plastic (David Kopf Instruments, Fremont, Calif.); heads were fixed with plastic screws inserted into the ear canals and a bar inserted under the front incisors. Rat heads were shaved and covered with gel toothpaste to reduce magnetic susceptibility artifacts arising from air-tissue interfaces; ear canals and oropharynx were also filled with toothpaste. A surface coil was secured over the dorsal surface of the head before positioning the animal in the magnet center. Cocaine (RBI, Natick, Mass.), SCH-23390 (RBI, Natick, Mass.), and cocaine methiodide (NIDA, Bethesda, Md.) were dissolved in normal saline and administered in a 0.5 ml volume at a rate of 1 ml/min via the femoral vein. Sixty minutes passed before injections of cocaine were repeated.” left out
# as §1, with “Calif.). Arterial pressure was continuously monitored and the data stored; heart rate was calculated from arterial pressure pulses by the data acquisition software.” for “Calif.).”
# [4] = literature (Schindler 1992, Hemby 1994); cited from earlier work
# T1 sequence (P18901 whole entry): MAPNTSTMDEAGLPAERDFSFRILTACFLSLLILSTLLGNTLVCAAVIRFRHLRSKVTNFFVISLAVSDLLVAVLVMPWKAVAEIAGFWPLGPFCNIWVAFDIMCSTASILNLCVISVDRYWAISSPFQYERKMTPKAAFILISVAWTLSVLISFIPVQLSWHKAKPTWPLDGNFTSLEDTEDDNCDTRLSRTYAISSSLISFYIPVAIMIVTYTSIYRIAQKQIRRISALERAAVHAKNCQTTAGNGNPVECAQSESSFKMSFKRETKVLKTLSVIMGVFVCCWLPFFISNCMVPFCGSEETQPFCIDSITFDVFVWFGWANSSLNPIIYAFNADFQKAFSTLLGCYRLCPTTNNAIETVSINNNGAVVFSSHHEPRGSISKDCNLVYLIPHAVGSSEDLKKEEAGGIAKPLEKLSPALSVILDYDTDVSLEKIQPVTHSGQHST
Structure (SMILES),"drop in CBV at nadir, frontal neocortex (D1 receptor [1]) [%]","drop in CBV at nadir, striatum (D1 receptor [1]) [%]",change in CBF relative to pre-drug baseline (D1 receptor [2]) [%],change in frontal cortex CBF (rat frontal cortex),blood pressure and heart rate [3],blood brain barrier passage [4]
CN1CCc2cc(Cl)c(O)cc2[C@@H](c2ccccc2)C1 [SCH-23390],5,8,−18±3,,,
COC(=O)[C@H]1[C@@H](OC(=O)c2ccccc2)C[C@@H]2CC[C@H]1[N+]2(C)C.[I-] [cocaine methiodide],,,,did not produce any significant change,transient decrease,does not cross the blood brain barrier
